The source of these data is patent publication US20210332014A1, “CABOZANTINIB MALATE CRYSTAL FORM, PREPARATION METHOD AND USE THEREOF” (Crystal Pharmaceutical (Suzhou) Co., Ltd., priority 2018, published 2021).

Assay type in all cases: physicochemical
Data set [1] can be described thus: Kinetic solubility study (saturated solutions, HPLC). To be noted: for Solubility in H2O / Solubility in FaSSIF / Solubility in FeSSIF: 20 mg in 1.5 mL. The protocol:
The HPLC method parameters for solubility test in the present disclosure are as follows: • 1. Column: Waters XBridge C18 150×4.6mm, 5 μm • 2. Mobile Phase: A: 0.1% TFA in H2O • B: 0.1% TFA in Acetonitrile • Gradient:
• 3. Flow rate: 1 mL/min • 4. Injection Volume: 5 μL • 5. Detection wavelength: 250 nm • 6. Column Temperature: 40° C. • 7. Diluent: Acetonitrile/H2O (9:1, v/v)
• Simulated gastrointestinal fluids such as FaSSIF (Fasted state simulated intestinal fluids) and FeSSIF (Fed state simulated intestinal fluids) are biorelevant media. […] After equilibrated for 1 h and 4 h, concentrations (mg/mL) of the saturated solutions were measured by HPLC.
• 20 mg of Form CSIII and 20 mg of crystalline forms in the prior arts were suspended into 1.5 mL of SGF, 1.5 mL of FaSSIF, 1.5 mL of FeSSIF and 1.5 mL of water to get saturated solutions. After equilibrated for 1 h and 4 h, concentrations (mg/mL) of the saturated solutions were measured by HPLC.

Data set [2] is described as follows: Adhesiveness (material sticking to the punch). The following applies: for Average amount sticking to the punch / Maximum amount sticking to the punch: 30 mg, φ8 mm round tooling, 10 KN held 30 s. Here is the method: • 30 mg of Form CSIII and crystalline forms in the prior art were weighed separately and then added into the dies of φ8 mm round tooling, compressed at 10 KN and held for 30 s. The punch was weighed and amount of material sticking to the punch was calculated. The compression was repeated twice and the cumulative amount, maximum amount and average amount of material sticking to the punch during the compression were recorded.

Data set [3] in a line: Compressibility (tensile strength of manually compressed tablet). To be noted: for Average tensile strength: 80 mg, φ6 mm round tooling, 10 KN, average of three tests. The protocol: • Manual tablet press was used for compression. 80 mg of Form CSIII and crystalline forms in the prior art were weighed and added into the dies of a φ6 mm round tooling, respectively, compressed at 10 KN manually, then stored at room temperature for 24 h until complete elastic recovery. Hardness (H) was tested with an intelligent tablet hardness tester. Diameter (D) and thickness (L) were tested with caliper. Tensile strength of the powder was calculated with the following formula: T=2H/πDL.

A short description of data set [4]: Flowability (compressibility index / Carr index). The following applies: for Compressibility index: c=(ρf−ρ0)/ρf.
Protocol: Compressibility index test method is as follows: a certain amount of powder was added into a measuring cylinder and bulk volume was recorded. Then the powder was tapped to make it in the tightest state and the tapped volume was recorded. The bulk density (ρ0), tapped density (ρf) were calculated and compressibility index was calculated according to c=(ρf−ρ0)/ρf. • Criteria of flowability according to United States Pharmacopoeia USP1174, which is shown in Table 7.
A short description of data set [5]: Dynamic Vapor Sorption (DVS). The following applies: humidity lower than 30% RH, 25° C.
Protocol: Dynamic Vapor Sorption (DVS) is measured via an SMS (Surface Measurement Systems Ltd.) intrinsic DVS instrument. […] Typical Parameters for DVS test are as follows: • Temperature: 25° C. • Gas and flow rate: N2, 200 mL/min • dm/dt=0.002 • RH range: 0% RH to 95% RH
Data set [6] is described as follows: Particle size distribution (laser particle size analyzer). The following applies: wet mode, Isopar G.
Protocol: The particle size distribution data in the present disclosure were acquired by an [MUT] laser particle size analyzer of Microtrac. Microtrac [MUT] is equipped with an SDC (Sample Delivery Controller). The test is carried out in wet mode, and the dispersion medium is Isopar G. The parameters are as follows:

Take `COc1cc2nccc(Oc3ccc(NC(=O)C4(C(=O)Nc5ccc(F)cc5)CC4)cc3)c2cc1OC.O=C(O)C[C@H](O)C(=O)O` [Form CSI, N-(4-(6,7-dimethoxyquinolin-4-yloxy)phenyl)-N′-(4-fluorophenyl) cyclopropane-1,1-dicarboxamide (S)-malate]: in data set [1], the “Solubility compared with prior art” value is “higher than that of prior art”. Also, the “Solubility in water relative to Form M4” value in data set [1] (water) is “over five times more”. Further, in data set [1] (water), the “Solubility in water relative to Form N-2” value was “twice”. The “Solubility in H2O” value in data set [1] (water, equilibrated 1 h) amounted to 350 µg/mL; in data set [1] (water, equilibrated 4 h), 360 µg/mL.
In the case of `COc1cc2nccc(Oc3ccc(NC(=O)C4(C(=O)Nc5ccc(F)cc5)CC4)cc3)c2cc1OC.O=C(O)C[C@H](O)C(=O)O` [Form CSIII, N-(4-(6,7-dimethoxyquinolin-4-yloxy)phenyl)-N′-(4-fluorophenyl) cyclopropane-1,1-dicarboxamide (S)-malate], in data set [2], the “Adhesiveness compared with prior art form” value is given as “superior to the prior art form”, the “Maximum amount sticking to the punch of the prior art relative to Form CSIII” value is recorded as “over twice”, the “Average amount sticking to the punch” value came to 0.045 mg and the “Maximum amount sticking to the punch” value is 0.06 mg. In data set [3], the “Compressibility compared with prior art” value was “better compressibility” and the Average tensile strength came to 1.56 MPa. In data set [1], the “Solubility compared with prior art” value is “higher than that of prior art”. In data set [1] (equilibrated 1 h), the “Solubility in FaSSIF” value was 25 µg/mL and the “Solubility in FeSSIF” value amounted to 130 µg/mL. Further, in data set [1] (equilibrated 4 h), the “Solubility in FaSSIF” value stood at 8.3 µg/mL and the “Solubility in FeSSIF” value was found to be 120 µg/mL. For the same compound, the “Solubility relative to Form N-2 and Form M4” value in data set [1] (FeSSIF and water) is given as “twice”. For the same compound, the “Solubility in H2O” value in data set [1] (water, equilibrated 1 h) turned out to be 300 µg/mL. For the same compound, in data set [1] (water, equilibrated 4 h), the “Solubility in H2O” value was 240 µg/mL. Besides, in data set [4], the Bulk density stood at 0.319 g/mL, the “Flowability compared with prior art” value is reported as “remarkably superior to that of prior art”, the Tapped density is 0.376 g/mL and the Compressibility index came out at 15%.
For `COc1cc2nccc(Oc3ccc(NC(=O)C4(C(=O)Nc5ccc(F)cc5)CC4)cc3)c2cc1OC.O=C(O)C[C@H](O)C(=O)O` [Form M2, N-(4-(6,7-dimethoxyquinolin-4-yloxy)phenyl)-N′-(4-fluorophenyl) cyclopropane-1,1-dicarboxamide (S)-malate], the “Behaviour under humidity (DVS)” value in data set [5] is recorded as “dehydrated rapidly”. In data set [6], this compound came in with a D90 particle size of 244.3 μm.
On to `COc1cc2nccc(Oc3ccc(NC(=O)C4(C(=O)Nc5ccc(F)cc5)CC4)cc3)c2cc1OC.O=C(O)C[C@H](O)C(=O)O` [Form M4, N-(4-(6,7-dimethoxyquinolin-4-yloxy)phenyl)-N′-(4-fluorophenyl) cyclopropane-1,1-dicarboxamide (S)-malate], for which, in data set [2], the “Average amount sticking to the punch” value is listed as 0.08 mg and the “Maximum amount sticking to the punch” value came out at 0.11 mg. In addition, in data set [3], the Average tensile strength is 1.23 MPa. For the same compound, in data set [1] (equilibrated 1 h), the “Solubility in FaSSIF” value worked out at 12 µg/mL and the “Solubility in FeSSIF” value was found to be 62 µg/mL. In data set [1] (equilibrated 4 h), the “Solubility in FaSSIF” value turned out to be 1.9 µg/mL and the “Solubility in FeSSIF” value came out at 65 µg/mL. For the same compound, in data set [1] (water, equilibrated 1 h), the “Solubility in H2O” value was 72 µg/mL. Moreover, the “Solubility in H2O” value in data set [1] (water, equilibrated 4 h) is 2.8 µg/mL. In data set [4], the Bulk density was determined as 0.251 g/mL, the Tapped density came out at 0.387 g/mL and the Compressibility index worked out at 35%.
As for `COc1cc2nccc(Oc3ccc(NC(=O)C4(C(=O)Nc5ccc(F)cc5)CC4)cc3)c2cc1OC.O=C(O)C[C@H](O)C(=O)O` [Form N-2, N-(4-(6,7-dimethoxyquinolin-4-yloxy)phenyl)-N′-(4-fluorophenyl) cyclopropane-1,1-dicarboxamide (S)-malate], in data set [2], the “Average amount sticking to the punch” value was found to be 0.20 mg and the “Maximum amount sticking to the punch” value came to 0.26 mg. Further, in data set [3], the Average tensile strength was 1.02 MPa. In addition, in data set [1] (equilibrated 1 h), the “Solubility in FaSSIF” value was 11 µg/mL and the “Solubility in FeSSIF” value is 47 µg/mL. Further, in data set [1] (equilibrated 4 h), the “Solubility in FaSSIF” value is 7.9 µg/mL and the “Solubility in FeSSIF” value amounted to 43 µg/mL. In addition, the “Solubility in H2O” value in data set [1] (water, equilibrated 1 h) is 150 µg/mL. The “Solubility in H2O” value in data set [1] (water, equilibrated 4 h) turned out to be 150 µg/mL. In data set [4], the Bulk density was 0.194 g/mL, the Tapped density was found to be 0.256 g/mL and the Compressibility index worked out at 24%.
